Values quoted from earlier work as cited in US20120252862A1, “Dissolvable Film Strip Comprising Natural Components” (YEDITEPE UNIVERSITES, priority 2009, published 2012).

Settings: single oral dose

## O=C(O[C@@H]1Cc2c(O)cc(O)cc2O[C@@H]1c1cc(O)c(O)c(O)c1)c1cc(O)c(O)c(O)c1 [EGCG, epigallocatechin gallate]
  Dose reported safe to be applied: up to 1600 mg
